Literature values, collected in patent publication US20260284157A1, “POWDER COMPOSITION COMPRISING A HAEMOSTATIC AGENT” (WOMED, priority 2023, published 2026).

Conditions: certificate of analysis of the product (Sigma Aldrich)

Substance: Thrombin
- activity of the protein: > 400 NIH units/mg protein
